# Reference: patent US20250017964A1, “ENGINEERING OR INDUCING PDGF AND/OR PDGFR SIGNALING TO ENHANCE NK CELL THERAPY” (City of Hope, priority 2021, published 2025)
# Columns and labels:
# [1] = system: PDGFRβ expression in human NK cells; assay: Cytokine-induced PDGFRβ expression in purified human NK cells, flow cytometry; assay type: cell-based; conditions: 24 h
# Excerpt: Data shown are the percentages of PDGFRβ^+ NK cells among total NK cells (n=5). […] Bar=20 μm. […] Data represent three independent experiments. Data shown are means SD.
# FIGS. 7A-7F. […] Data shown are representative histograms and mean fluorescence intensity (MFI) of PDGFRα. […] Expression levels of PDGFRβ were examined by flow cytometry (n=6). […] Data shown are the percentages of PDGFRβ^+ NK cells among total NK cells (n=5). […] Data shown are representative histograms with MFI of PDGFRβ expression. (F) Expression levels of PDGFRβ on NK cells from IL-15 transgenic (Tg) mice were determined by flow cytometry. Data shown are representative histograms. Data represent three independent experiments.
# NK cells were cultured in RPMI 1640 with 10% heat-inactivated FBS (Gibco) at 37° C. in a 5% CO2 humidified incubator. For NK cell transduction, PDGFRB cDNA ORF clone (Cat: HG10514-G) was purchased from Sino Biological and cloned into pCDH-CMV-MCS-EF1-copGFP lentivirus vector (System Biosciences). To produce lentivirus, we transfected the lentiviral transfer vector DNA, together with psPAX2 packaging (Addgene) and pMD2.G envelope plasmid DNA (Addgene), into HEK293T cells; using a polyethyenimine (PEI) transfection protocol (Polysciences). Concentrated lentivirus was added to primary NK cells cultured in RPMI 1640 medium supplemented with 10% FCS and 10 jig/mL polybrene with 2,000×g centrifugation for 2 h. Cells were cultured for an additional 48 h. […] The cells were then collected for flow cytometry analysis. For the inhibition assay, NK cells were pretreated with the indicated inhibitors for 1 h, washed twice with RPMI 1640. and then treated with IL-15 for 24 h.
# Cells were stained with the indicated cell-surface markers and/or fixed/permeabilized using a Fixation/Permeabilization Kit (eBioscience). For intracellular staining of IFN-γ and PDGF-D, 5 μg/ml Brefeldin A (BioLegend) was added for 4 h before cell harvest. Intracellular staining of Ki67 was performed by fixing and permeabilizing with the Foxp3/Transcription Factor Staining Kit (eBioscience).
# PDGFRβ = PDGFRβ localisation: immunofluorescence and immunoblot of cell fractions; assay type: cell-based, human
# Procedure: FIGS. 1A-1J. IL-15 induces PDGFRβ expression in human NK cells. (A-C) NK cells were purified from PBMCs of healthy donors and stimulated with IL-15 (10 ng/ml) for 24 h. Expression levels of PDGFRα and PDGFRβ were examined by flow cytometry. Data shown are representative dot plots (A), percentages (B), and mean fluorescence intensity (MFI) of PDGFRβ in NK cells (C) (n=20). Resting NK cells were used as the control. (D-E) NK cells were treated with various doses of IL-15 for 24 h (D) or with the same dose of IL-15 (10 ng/ml) at the indicated times (E). Data shown are the percentages of PDGFRβ^+ NK cells among total NK cells (n=5). (F) Immunofluorescence analysis of PDGFRβ expression on resting and IL-15-treated NK cells. Sodium-potassium ATPase was used as a cell membrane marker. Bar=20 μm. (G) Expression of PDGFRβ in the cytoplasmic, nuclear, and cell membrane fractions of NK cells determined by immunoblotting. […] Expression levels of PDGFRβ were then determined by flow cytometry. […]
# RNA was isolated using an RNeasy Mini Kit (QIAGEN) and reversely transcribed to cDNA with a PrimeScript RT Reagent Kit with gDNA Eraser (Takara Bio) according to the manufacturer's protocol. mRNA expression levels were analyzed using SYBR Green qPCR Master Mix and a QuantStudio 12K Flex Real-Time PCR System (both from Thermo Fisher Scientific). […]
substance,measurement,setting,value
IL-15: recombinant human IL-15 (200-15); recombinant murine IL-15 in the mouse NK cell test,PDGFRβ expression,"[1]; cytokine 10 ng/ml, IL-15 effect dose- and time-dependent",induced robust expression of PDGFRβ
same,PDGFRβ expression in CD56^bright NK cells,"[1]; sorted CD56^bright NK cells, IL-15 10 ng/ml",not CD56^bright NK cells
same,PDGFRβ expression in CD56^dim NK cells,"[1]; sorted CD56^dim NK cells, IL-15 10 ng/ml",induced PDGFRβ expression only in CD56^dim NK cells
same,PDGFRβ localisation by immunofluorescence,PDGFRβ; IL-15-treated versus resting NK cells,expressed on the membrane
same,"PDGFRβ in cytoplasmic, nuclear and cell membrane fractions by immunoblotting",PDGFRβ; after stimulation by IL-15,enriched in the cytoplasm and translocated to the cell membrane
